Consider one compound from US20100184677A1, “USE OF THE HUMAN PANCREATIC POLYPEPTIDE AS A THERAPEUTIC AGENT” (priority 2007, published 2010).

In the test the test system is drug-resistant Mycobacterium tuberculosis. To be noted: peptide 10 micrograms per ml, seven days.

In the case of `CC[C@H](C)[C@H](NC(=O)[C@H](Cc1ccc(O)cc1)NC(=O)[C@H](CCCNC(=N)N)NC(=O)[C@H](CCCNC(=N)N)NC(=O)[C@H](CC(C)C)NC(=O)[C@H](CC(=O)O)NC(=O)[C@H](C)NC(=O)[C@H](C)NC(=O)[C@H](Cc1ccc(O)cc1)NC(=O)[C@H](CCC(N)=O)NC(=O)[C@H](C)NC(=O)[C@H](CCSC)NC(=O)[C@H](CCC(N)=O)NC(=O)[C@H](CCC(=O)O)NC(=O)[C@@H]1CCCN1C(=O)[C@@H](NC(=O)[C@H](C)NC(=O)[C@H](CC(N)=O)NC(=O)[C@H](CC(=O)O)NC(=O)CNC(=O)[C@@H]1CCCN1C(=O)[C@H](Cc1ccc(O)cc1)NC(=O)[C@@H](NC(=O)[C@@H]1CCCN1C(=O)[C@H](CCC(=O)O)NC(=O)[C@H](CC(C)C)NC(=O)[C@@H]1CCCN1C(=O)[C@H](C)N)C(C)C)[C@@H](C)O)C(=O)N[C@@H](CC(N)=O)C(=O)N[C@@H](CCSC)C(=O)N[C@@H](CC(C)C)C(=O)N[C@H](C(=O)N[C@@H](CCCNC(=N)N)C(=O)N1CCC[C@H]1C(=O)N[C@@H](CCCNC(=N)N)C(=O)N[C@@H](Cc1ccc(O)cc1)C(N)=O)[C@@H](C)O` [Pancreatic polypeptide], the “% inhibition” value came to 0.0%.
